Experimental data published in patent US20040213742A1, “Monitoring marker” (priority 2002, published 2004).

Test: Intrauterine injection of pure N2O gas in anaesthetized pigs, N2O detected in expired breath
Type: in vivo
Settings: anaesthetized pig
Procedure: Pure nitrous oxide (N2O) gas was injected into the uterine cavities of 2 anaesthetized pigs with open uterine tubes and surgically ligated uterine tubes, respectively. Said N2O was detected every second in the expired breath by means of a conventional N2O detector.
The results are shown in FIGS. 1 and 2, where FIG. 1 is a concentration versus time graph and FIG. 2 is a cumulative concentration versus time graph, the upper curves representing closed uterine tubes and the lower curves representing open uterine tubes.
Furthermore, there was a clear difference between the two curves versus time which enables a monitoring of fallopian tube abnormalities as claimed by the present invention.

## [N-]=[N+]=O [nitrous oxide]
Open uterine tubes, intrauterine injection of pure N2O gas
  time to maximum concentration in the exhaled air: approximately 2 minutes
Open uterine tubes, pure N2O gas injected into uterine cavity, detected every second in expired breath
  maximum concentration in the exhaled air: approximately 40 ppm
Surgically ligated (closed) uterine tubes versus open uterine tubes
  maximum concentration in the exhaled air, closed tubes relative to open tubes (higher): approximately 50%
